{"source": "patent US20240408099A1", "about": "“COMBINATION […] OF KRAS G12D INHIBITORS WITH Pan ErbB FAMILY INHIBITORS” (MIRATI THERAPEUTICS, INC., priority 2021, published 2024)", "test_system": "HPAC cells", "assay": "HPAC TGI 73 pancreatic cancer xenograft, tumor volumes", "type": "in vivo, nude/nude mice", "conditions": "for Average Tumor Volumes: 50 mg/kg PO daily", "procedure": "Immunocompromised nude/nude mice are inoculated in the right hind flank with cells harboring a KRas G12D mutation. When tumor volumes reach between 200-400 mm^3 in size, the mice are divided into four to five groups of 5 mice each. The first group is administered vehicle only. […] The fourth or last groups are administered the single agent dose of the KRas G12D inhibitor using the twice daily schedule and/or the 2 sequential days followed by 5 days off schedule in combination with the single agent dose of one of the EGFR inhibitors. The treatment period varies from cell line to cell line but typically is between 15-40 days. Tumor volumes are measured using a caliper every two-three days and tumor volumes are calculated by the formula: […].\nExperimental Procedures. 20 nude/nude mice were inoculated with HPAC cells in the right hind flank. When the tumors reached ˜200 mm^3 four treatment groups were established with five mice per group."}
{"smiles": "C#Cc1cccc(Nc2ncnc3cc(OCCOC)c(OCCOC)cc23)c1", "note": "[Erlotinib, [6,7-Bis-(2-methoxy-ethoxy)-quinazolin-4-yl]-(3-ethynyl-phenyl)-amine, reference compound]", "values": [{"measurement": "Average Tumor Volumes", "setting": "Study Day 0", "value": 197.582, "unit": "mm^3"}, {"measurement": "Average Tumor Volumes", "setting": "Study Day 3", "value": 320.132, "unit": "mm^3"}, {"measurement": "Average Tumor Volumes", "setting": "Study Day 7", "value": 421.908, "unit": "mm^3"}, {"measurement": "Average Tumor Volumes", "setting": "Study Day 10", "value": 587.79, "unit": "mm^3"}, {"measurement": "Average Tumor Volumes", "setting": "Study Day 14", "value": 705.688, "unit": "mm^3"}, {"measurement": "Average Tumor Volumes", "setting": "Study Day 17", "value": 856.214, "unit": "mm^3"}, {"measurement": "Average Tumor Volumes", "setting": "Study Day 21", "value": 945.702, "unit": "mm^3"}, {"measurement": "tumor growth inhibition", "setting": "50 mg/kg daily, single agent, Day 21", "value": 35, "unit": "%"}]}
